Patent US20260240846A1, “ZAK ALPHA KINASE (MAP3K20) INHIBITORS FOR USE IN THE TREATMENT OF ANEMIA” (UNIVERSIDAD DE MURCIA, priority 2023, published 2026)

System: K562 cells
Assay: Erythroid differentiation assay in K562 cells (hemin; hemoglobin accumulation, western blot)
Format: cell-based, human
Description: FIG. 1. ZAKα/P38 signaling pathway is activated in K562 after erythroid differentiation and its inhibition facilitates terminal erythroid differentiation. K562 cells were pre-treated with 0.1 μM nilotinib (Nil) (A, C, D), 1 μM anisomycin (B) and/or the indicated concentrations of the […] CX-5461 for 24 h, and then differentiated with 50 μM hemin for another 24 h. Hemoglobin accumulation (A, B, D) and NLRP1, phosphorylated P38, GATA1, ZAKα and ACTB (A-C) amounts were then evaluated by western blot. Immunoblots are representative of 3 independent experiments. #1, ACTB; #2, GATA1.
FIG. 2. The ZAKα/P38 signaling pathways is activated in K562 after erythroid differentiation. K562 cells were pre-treated with 0.1 μM nilotinib for 24 h and then differentiated with 50 μM hemin for the indicated times. The amounts of NLRP1, GATA1, phosphorylated P38, total ZAKα, phosphorylated ZAKα (Phos-tag) and ACTB were then evaluated by western blot.
FIG. 10. Imatinib and dasatinib promote erythropoiesis in human and zebrafish. (A) K562 cells were pretreated with the indicated concentrations of nilotinib, imatinib or dasatinib for 24 h and then differentiated with 50 μM hemin for 24 h. The amounts of NLRP1, GATA1, phosphorylated P38, total ZAKα and ACTB were then evaluated by western blot. (B) Zebrafish larvae were treated from 1 to 2 dpf with the indicated concentrations of nilotinib, imatinib or dasatinib. Representative images and number of neutrophils in larvae of 2 dpf treated by bath immersion with the indicated concentrations of imatinib and dasatinib. Each dot represents one individual and the mean±SEM for each group is also shown. P values were calculated by one-way ANOVA and Tukey's multiple range test. n.s., non-significant. ***P<0.001; ****P<0.0001.
FIG. 11. Ponatinib and bosutinib promote erythropoiesis in human and zebrafish. (A) K562 cells were pretreated with the indicated concentrations of nilotinib, ponatinib and bosutinib for 24 h and then differentiated with 50 μM hemin for the indicated times. The amounts of NLRP1, total ZAKα, GATA1, phosphorylated P38 and ACTB were then evaluated by western blot. (B) Number of neutrophils in larvae of 2 dpf treated by bath immersion with the indicated concentrations of ponatinib and bosutinib. Each dot represents one individual and the mean±SEM for each group is also shown. P values were calculated by one-way ANOVA and Tukey's multiple range test. n.s., non-significant, *P<0.05. **P<0.01. ***P<0.001.
K562 cells (CRL-3343; American Type Culture Collection) were maintained in RPMI culture medium supplemented with 10% fetal calf serum (FCS), 2 mM Glutamine, and 1% penicillin-streptomycin (Life Technologies). Cells were maintained and subcultured before confluence every 72 h. For differentiation, cells were treated with 50 μM hemin (#16009-13-5, Sigma-Aldrich) in the presence of 0.1% DMSO alone or with the caspase-1 inhibitor VX-765 (100 μM), the tyrosine kinase inhibitor nilotinib (0.1 μM), the RNA polymerase I inhibitor CX-5461 (200 nM, 1 μM and 10 μM) (all from MedChemExpress). Cells were collected at different time points (0, 24, 48 hours post-hemin addition), centrifuged, washed twice with PBS, and stored at −80° C. for further analysis.
Cells were lysed in 50 mM Tris-HCl (pH 7.5), 150 mM NaCl, 1% (w/v) NP-40 and fresh protease inhibitor (1/20, #P8340, Sigma-Aldrich). Protein quantification was performed with the BCA kit using BSA as standard. Cell lysates ([…]) in SDS sample buffer were subjected to electrophoresis on a polyacrylamide gel and transferred to nitrocellulose membranes. The membranes were incubated for 1 h with TTBS containing 5% (w/v) skimmed dried milk powder or 2% (w/v) BSA. The membranes were immunoblotted in the same buffer 16 h at 4° C. with the different primary antibodies diluted 1/1000. The blots were then washed with TTBS and incubated for 1 h at room temperature with secondary HRP-conjugated antibodies diluted 2,500-fold in 5% (w/v) skimmed milk in TTBS. […]

[1] = K562 cells, 0.1 μM nilotinib 24 h, then 50 μM hemin, western blot

Cc1cn(-c2cc(NC(=O)c3ccc(C)c(Nc4nccc(-c5cccnc5)n4)c3)cc(C(F)(F)F)c2)cn1 [nilotinib]
erythroid differentiation of K562 (0.1 μM nilotinib 24 h, with or without 50 μM hemin 24 h (FIG. 1A)): strongly promoted erythroid differentiation of K562, even in the absence of hemin
haemoglobin accumulation (K562 cells, 0.1 μM nilotinib 24 h, then 50 μM hemin 24 h): increase in haemoglobin accumulation
hemin-induced phosphorylation of ZAKα (K562 cells, 0.1 μM nilotinib 24 h, then 50 μM hemin, Phos-tag western blot): strongly reversed
hemin-induced degradation of GATA1 [1]: strongly reversed
hemin-induced phosphorylation of P38 [1]: strongly reversed
expression of GATA1 (K562 cells, 0.1 μM nilotinib (FIGS. 1A and 2)): increased expression of GATA1
accumulation of GATA1 in the presence of CX-5461 (K562 cells, 0.1 μM nilotinib plus CX-5461 24 h, then 50 μM hemin 24 h (FIG. 1C)): able to promote accumulation of GATA1
abundance of ZAK alpha, phosphorylated ZAKα and P38, and NLRP1 (K562 cells, basal conditions, upon hemin-induced erythroid differentiation and upon anisomycin): Alter the abundance
